Experimental data from patent publication US9394343B2, “Appetite stimulating protein” (The Regents of the University of California, priority 2011, dated 2016).
Bridge positions count the residues as written; N and C are the ends. Ends that are not written are not given here. Peptide text beside a SMILES is read from it.

Legend:
hMC4R = target: T1, hMC4R (Homo sapiens, UniProt P32245); conditions: cited from earlier work
T1 construct: expressed in transfected cells; host or cells: HEK-293

[1] = cooperative folding, Jackson et al., 2002; cited from earlier work
hMC3R [2] = target: T2, hMC3R (Homo sapiens, UniProt P41968); conditions: cited from earlier work
T2 construct: expressed in transfected cells; host or cells: HEK-293
T2 sequence (P41968 whole entry): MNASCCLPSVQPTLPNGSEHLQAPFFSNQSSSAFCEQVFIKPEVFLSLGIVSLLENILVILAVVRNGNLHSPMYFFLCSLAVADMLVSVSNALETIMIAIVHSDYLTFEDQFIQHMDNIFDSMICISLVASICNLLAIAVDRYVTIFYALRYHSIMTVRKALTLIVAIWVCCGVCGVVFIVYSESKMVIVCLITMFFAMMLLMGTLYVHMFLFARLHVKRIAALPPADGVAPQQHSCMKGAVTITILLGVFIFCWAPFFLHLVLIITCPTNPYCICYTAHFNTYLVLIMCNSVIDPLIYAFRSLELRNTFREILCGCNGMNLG

[3] = cited from earlier work; for Feeding response compared with AgRP: literature
male Long-Evans rats = experiment: Feeding and body mass after single third cerebral ventricle (ICV) injection; format: in vivo, rat; conditions: single 1.0 nmol ICV dose; for Initial (24 hour) feeding response, in words: first 24 hours
hMC3R [4] = target: T2, hMC3R; conditions: cAMP, NDP-MSH stimulated; data adapted from the literature (footnote c); read-out: EC50, MC3R; cited from earlier work

T1 sequence (P32245 whole entry): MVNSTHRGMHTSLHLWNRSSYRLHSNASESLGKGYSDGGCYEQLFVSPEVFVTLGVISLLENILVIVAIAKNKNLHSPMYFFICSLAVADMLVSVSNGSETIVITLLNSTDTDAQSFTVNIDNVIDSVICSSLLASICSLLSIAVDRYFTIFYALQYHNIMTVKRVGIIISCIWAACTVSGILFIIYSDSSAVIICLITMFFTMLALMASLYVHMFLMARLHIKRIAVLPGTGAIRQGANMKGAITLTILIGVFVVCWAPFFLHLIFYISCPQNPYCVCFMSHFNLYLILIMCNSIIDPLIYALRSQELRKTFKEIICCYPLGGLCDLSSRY

## CC(=O)N[C@H]1CSSC[C@@H]2NC(=O)[C@@H]3CSSC[C@@H](C(=O)N[C@@H](CCCNC(=N)N)C(N)=O)NC(=O)[C@H](Cc4ccc(O)cc4)NC(=O)[C@@H]4CSSC[C@H](NC(=O)[C@H](Cc5ccc(O)cc5)NC(=O)[C@H](CSSC[C@H](NC(=O)[C@H](CO)NC(=O)[C@H](CCC(=O)O)NC(=O)[C@H](Cc5c[nH]cn5)NC(=O)[C@H](CC(C)C)NC(=O)[C@H](CCCNC(=N)N)NC(=O)[C@H](C(C)C)NC1=O)C(=O)N[C@@H](CC(C)C)C(=O)NCC(=O)N[C@@H](CCC(N)=O)C(=O)N[C@@H](CCC(N)=O)C(=O)N[C@@H](C(C)C)C(=O)N1CCC[C@H]1C(=O)N3)NC(=O)[C@H]([C@@H](C)O)NC(=O)[C@H](C)NC(=O)[C@H](C)NC(=O)[C@@H]1CCCN1C(=O)[C@H](CC(=O)O)NC2=O)C(=O)N[C@@H](CCCNC(=N)N)C(=O)N[C@@H](Cc1ccccc1)C(=O)N[C@@H](Cc1ccccc1)C(=O)N[C@@H](CC(N)=O)C(=O)N[C@@H](C)C(=O)N[C@@H](Cc1ccccc1)C(=O)N4 [AgRP(87-120)] (Ac-CVRLHESCLGQQVPCCDPAATCYCRFFNAFCYCR-NH2; disulfide 1-16, 8-22, 15-33, 24-31 (inferred); C-terminus assumed)
hMC4R; previous study
  Dissociation constant at Mc4R compared with mature AgRP(83-132): equivalent to mature AgRP(83-132)
[1]
  Folding stability: indistinguishable from AgRP(83-132)
hMC3R [2]; previous study
  Dissociation constant at Mc3R compared with mature AgRP(83-132): equivalent to mature AgRP(83-132)

## MTII
[3]; injected after AgRP
  Feeding after injection following AgRP administration: transiently reduces feeding

## SHU9119
[3]
  Feeding response compared with AgRP: long-term response similar to AgRP

## mature wild type human Agouti-Related Protein, SSRR-CVRLHESCLGQQVPCCDPCATCYCRFFNAFCYC-RKLGTAMNPCSRT (SSRRCVRLHESCLGQQVPCCDPCATCYCRFFNAFCYCRKLGTAMNPCSRT; not fully specified (bridges); ends and bridges not checked; listed as Homo sapiens) [AgRP(83-132)]
hMC4R; displacement of 125I-NDP-MSH, data adapted from the literature (footnotes a, d), read-out: Ki, MC4R
  Ki: 11 ± 0.7 nM
Male Long-Evans rats
  Feeding increase over control at three or four days after injection: about 30%
  Initial (24 hour) feeding response, in words: the most potent
Male Long-Evans rats; listed as AgRP
  Initial (24 hour) feeding response, in words: greatly stimulate feeding
Male Long-Evans rats; first 24 hr
  Feeding increase over control after one day: ~80%

## neuropeptide Y [neuropeptide Y (NPY)]
[3]
  Feeding response compared with AgRP: feeding returns to baseline after 24 hours

## truncated AgRP lacking the N-terminal SSRR segment: CVRLHESCLGQQVPCCDPCATCYCRFFNAFCYC-RKLGTAMNPCSRT [AgRP(87-132)]
hMC3R [4]
  EC50: 8.9 ± 0.2 nM
hMC3R [2]; displacement of 125I-NDP-MSH, data adapted from the literature (footnote a), read-out: Ki, MC3R
  Ki: 5.2 ± 0.7 nM
